{"source": "patent US20160202261A1", "about": "(priority 2011, published 2016)", "key": {"[1]": {"system": "T84 human colon carcinoma cells", "type": "cell-based"}, "[2]": {"system": "VASP Ser157 and Ser239 phosphorylation in T84 and HCT116 colon cancer cells", "type": "cell-based, human"}}}
{"smiles": "Nc1nc2c(nc(Br)n2[C@@H]2O[C@@H]3COP(=O)(O)O[C@H]3[C@H]2O)c(=O)[nH]1", "note": "[8-br-cGMP]", "values": [{"measurement": "Filopodia frequency and length", "setting": "[1]", "result": "impaired"}, {"measurement": "VASP phosphorylation at Ser157 and Ser239", "setting": "[2]", "result": "mimicked"}]}
